Reference: patent US20080207614A1, “QUINAZOLINE DERIVATIVES FOR THE TREATMENT AND PREVENTION OF DIABETES AND OBESITY” (SK CHEMICALS CO., LTD., priority 2004, published 2008)

How the values were obtained:
AMPK = assay: Measurement of AMPK activity by Western blot in C2C12 cells; type: cell-based; design: key to AMPK activity (degree of phosphorylation of serine-79 and threonine-172): fold increase in threonine-172 phosphorylation; conditions: 10 μM for 50 minutes, no superscript: Western blot of serine-79 and threonine-172 phosphorylation
Experimental: C2C12 cells were cultured and differentiated in the same manner as in Experimental Example 1. Treatment with the test materials was also performed in the same manner as in Experimental Example 1 (10 μM for 50 minutes). The culture medium was removed and the cells were washed for 2 times with PBS and protein extracts were obtained using a lysis buffer (50 mM tris-HCl, pH 7.4, 1% NP-40, 0.25% sodium deoxycholate, 150 mM NaCl, 1 mM EDTA, 1 mM PMSF, 1 mM sodium o-vanadate, 1 mM NaF, 1 μg/mL apronitin, 1 μg/mL leu-peptin, 1 μg/mL pepstatin). The AMPK activity was determined from Western blot analysis of the degree of phosphorylation of serine-79 […] acetyl CoA carboxylase and the degree of phosphorylation of threonine-172. The amount of ERK (extracellular signal regulated protein kinase) was confirmed by Western blot in order to quantify the proteins.
The result of Western blot analysis is given in Table 3 below, wherein “strong” means that the degree of phosphorylation of threonine-172 increased by 3 times or more, “mild” means that the degree of phosphorylation of threonine-172 increased by 1 to 3 times and “weak” means that the degree of phosphorylation of threonine-172 increased by less than 1 time.

C2C12 muscle cells = assay: Analysis of glucose absorption (2-deoxyglucose) in differentiated C2C12 muscle cells; type: cell-based; conditions: test materials 10 μM, times relative to control group
Outline: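 Uptake of 0.2 μCi 2-deoxyglucose over 20 min, counted radiometrically in lysed cells. Before tracer, compounds (10 μM) were applied for 30 min to C2C12 cells differentiated 6 days in 1% serum and equilibrated 3 h in 5 mM glucose KRB.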

SMILES	AMPK activity (degree of phosphorylation of serine-79 and threonine-172) (AMPK)	Glucose absorption (C2C12 muscle cells)
COc1cc(CNc2nc(C(OC)c3ccccc3)nc3ccccc23)cc(OC)c1OC (centres unmarked) [Compound 367, [2-(Methoxyphenylmethyl)-quinazolino-4-yl]-(3,4,5-trimethoxybenzyl)-amine]	2.2	–
c1csc(-c2nc(NCc3ccc4c(c3)OCO4)c3ccccc3n2)c1 [Compound 352, Benzo[1,3]dioxol-5-ylmethyl-(2-thiopenyl-2-ylquinazolino-4-yl)-amine]	0.5	–
COc1ccc(CNc2nc(C(OC)c3ccccc3)nc3ccccc23)cc1OC (centres unmarked) [Compound 366, (3,4-Dimethoxybenzyl)-[2-(methoxyphenylmethyl)-quinazolino-4-yl]-amine]	1.6	–
COc1ccc(CNc2nc(-c3ccco3)nc3ccccc23)c(OC)c1 [Compound 346, (2,4-Dimethoxybenzyl)-(2-furano-2-ylquinazolino-4-yl)-amine]	0.8	–
COc1cc(CNc2nc(-c3cccs3)nc3ccccc23)cc(OC)c1OC [Compound 356, (2-Thiopenyl-2-ylquinazolino-4-yl)-(3,4,5-trimethoxybenzyl)-amine]	1.4	–
COc1ccc(CNc2nc(-c3cccs3)nc3ccccc23)c(OC)c1 [Compound 357, (2,4-Dimethoxybenzyl)-(2-thiopenyl-2-ylquinazolino-4-yl)-amine]	0.7	–
FC(F)(F)c1cccc(CNc2nc(-c3cccnc3)nc3ccccc23)c1 [Compound 238, (2-Pyridino-3-ylquinazolino-4-yl)-(3-trifluoromethylbenzyl)-amine]	–	1.0
FC(F)(F)c1cccc(CNc2nc(Cc3ccccc3)nc3ccccc23)c1 [Compound 214, (2-Benzylquinazolino-4-yl)-(3-trifluoromethylbenzyl)-amine]	–	2.0
COc1cccc(CNc2nc(-c3ccccn3)nc3ccccc23)c1 [Compound 224, (3-Methoxybenzyl)-(2-pyridino-2-ylquinazolino-4-yl)-amine]	–	1.1
c1ccc(-c2nc(NCc3ccncc3)c3ccccc3n2)cc1 [Compound 141, (2-Phenylquinazolino-4-yl)-pyridino-4-ylmethylamine]	–	2.1
Fc1cccc(CCNc2nc(-c3ccc(Cl)cc3)nc3ccccc23)c1 [Compound 268, [2-(4-Chlorophenyl)-quinazolino-4-yl]-[2-(3-fluorophenyl)-ethyl]-amine]	–	1.1
CCSc1nc(NCCCc2ccccc2)c2ccccc2n1 [Compound 32, (2-Ethylsulfanylquinazoline-4-yl)-(3-phenylpropyl)-amine]	–	1.1
c1ccc(CNc2nc(-c3ccccn3)nc3ccccc23)cc1 [Compound 223, Benzyl-(2-pyridino-2-ylquinazolino-4-yl)-amine]	–	1.7
Fc1cccc(CNc2nc(Cc3ccccc3)nc3ccccc23)c1 [Compound 219, (2-Benzylquinazolino-4-yl)-(3-fluorobenzyl)-amine]	–	2.3
Fc1cccc(CNc2nc(C3CCCCC3)nc3ccccc23)c1 [Compound 207, (2-Cyclohexylquinazolino-4-yl)-(3-fluorobenzyl)-amine]	–	2.0
OC(CNc1nc(-c2ccccc2)nc2ccccc12)c1ccccc1 (centres unmarked) [Compound 146, 1-Phenyl-2-(2-phenylquinazolino-4-ylamino)-ethanol]	–	2.3
c1ccc2c(CNc3nc(C4CCCCC4)nc4ccccc34)cccc2c1 [Compound 205, (2-Cyclohexylquinazolino-4-yl)-naphthaleno-1-ylmethylamine]	–	1.3
c1ccc(-c2nc(NCC3CCCC3)c3ccccc3n2)cc1 [Compound 159, Cyclopentylmethyl-(2-phenylquinazolino-4-yl)-amine]	–	2.6
Cc1ccc(Nc2nc(-c3ccccc3)nc3ccccc23)c(C)c1 [Compound 73, (2,4-Dimethyl-phenyl)-(2-phenylquinazolino-4-yl)-amine]	–	1.0
CCC(C)Nc1nc(-c2ccccc2)nc2ccccc12 (centres unmarked) [Compound 96, sec-Butyl-(2-phenylquinazolino-4-yl)-amine]	–	1.3
Cc1cc(C)c(Nc2nc(-c3ccccc3)nc3ccccc23)c(C)c1 [Compound 78, (2-Phenylquinazolino-4-yl)-(2,4,6-trimethyl-phenyl)-amine]	–	1.4
c1ccc(-c2nc(NC3CCCCC3)c3ccccc3n2)cc1 [Compound 51, Cyclohexyl-(2-phenylquinazolino-4-yl)-amine]	–	1.0

SMILES	AMPK activity (degree of phosphorylation of serine-79 and threonine-172) (AMPK)	Glucose absorption (C2C12 muscle cells)
c1ccc(Cc2nc(NCc3ccc4c(c3)OCO4)c3ccccc3n2)cc1 [Compound 218, Benzo[1,3]dioxol-5-ylmethyl-(2-benzylquinazolino-4-yl)-amine]	–	2.0
O=[N+]([O-])c1ccc(CONc2nc(-c3ccccc3)nc3ccccc23)cc1 [Compound 161, O-(4-Nitrobenzyl)-N-(2-phenylquinazolino-4-yl)-hydroxylamine]	–	1.1
CC(C)(C)c1nc(NCCO)c2ccccc2n1 [Compound 198, 2-(2-tert-Butylquinazolino-4-ylamino)-ethanol]	–	1.4
Clc1ccc(CNc2nc(-c3ccccc3)nc3ccccc23)cc1 [Compound 88, (4-Chlorobenzyl)-(2-phenylquinazolino-4-yl)-amine]	–	1.1
Fc1cccc(CNc2nc(-c3ccccc3)nc3ccccc23)c1 [Compound 63, (3-Fluorobenzyl)-(2-phenylquinazolino-4-yl)-amine]	–	1.1
CCN1CCCC1CNc1nc(-c2ccccc2)nc2ccccc12 (centres unmarked) [Compound 117, (1-Ethyl-pyrrolidino-2-ylmethyl)-(2-phenylquinazolino-4-yl)-amine]	–	1.4
COc1cccc(CCNc2nc(-c3ccccc3)nc3ccccc23)c1 [Compound 120, [2-(3-Methoxyphenyl)-ethyl]-(2-phenylquinazolino-4-yl)-amine]	–	1.4
c1ccc(CNc2nc(-c3cccnc3)nc3ccccc23)cc1 [Compound 235, Benzyl-(2-pyridino-3-ylquinazolino-4-yl)-amine]	–	1.2
c1cncc(-c2nc(NCc3ccc4c(c3)OCO4)c3ccccc3n2)c1 [Compound 242, Benzo[1,3]dioxol-5-ylmethyl-(2-pyridino-3-ylquinazolino-4-yl)-amine]	–	0.9
c1coc(-c2nc(NCc3ccc4c(c3)OCO4)c3ccccc3n2)c1 [Compound 341, Benzo[1,3]dioxol-5-ylmethyl-(2-furano-2-ylquinazolino-4-yl)-amine]	–	0.8
COc1cc(CNc2nc(-c3ccccc3)nc3ccccc23)cc(OC)c1OC [Compound 129, (2-Phenylquinazolino-4-yl)-(3,4,5-trimethoxybenzyl)-amine]	–	1.3
Clc1ccc(-c2nc(NCCCCc3ccccc3)c3ccccc3n2)cc1 [Compound 264, [2-(4-Chlorophenyl)-quinazolino-4-yl]-(4-phenylbutyl)-amine]	–	1.1
CCCCNc1nc(SCC)nc2ccccc12 [Compound 19, Butyl-(2-ethylsulfanylquinazolino-4-yl)-amine]	–	1.4
COc1cc(OC)c(CNc2nc(Cc3ccccc3)nc3ccccc23)c(OC)c1 [Compound 335, (2-Benzylquinazolino-4-yl)-(2,4,6-trimethoxybenzyl)-amine]	–	1.1
c1ccc(CCCCNc2nc(Cc3ccccc3)nc3ccccc23)cc1 [Compound 216, (2-Benzylquinazolino-4-yl)-(4-phenylbutyl)-amine]	–	2.6
CCSc1nc(NCC(C)C)c2ccccc2n1 [Compound 21, (2-Ethylsulfanylquinazolino-4-yl)-isobutylamine]	–	1.2
CC(C)OCCCNc1nc(-c2ccccc2)nc2ccccc12 [Compound 62, (3-Isopropoxypropyl)-(2-phenylquinazolino-4-yl)-amine]	–	1.1
CC(C)(C)c1nc(NCc2ccc3c(c2)OCO3)c2ccccc2n1 [Compound 194, Benzo[1,3]dioxol-5-ylmethyl-(2-tert-butylquinazolino-4-yl)-amine]	–	1.4
Cc1nc(NCCO)c2ccccc2n1 [Compound 174, 2-(2-Methylquinazolino-4-ylamino)-ethanol]	–	1.2
FC(F)(F)c1cccc(CNc2nc(C3CCCCC3)nc3ccccc23)c1 [Compound 202, (2-Cyclohexylquinazolino-4-yl)-(3-trifluoromethylbenzyl)-amine]	–	1.4
Clc1ccc(-c2nc(NCc3ccccc3)c3ccccc3n2)cc1 [Compound 259, Benzyl-[2-(4-chlorophenyl)-quinazolino-4-yl]-amine]	–	1.4
c1ccc(-c2nc(NCCN3CCNCC3)c3ccccc3n2)cc1 [Compound 160, (2-Phenylquinazolino-4-yl)-(2-piperazino-1-ylethyl)-amine]	–	2.5
